Assay results: patent publication US10010547B2 (CASCADIAN THERAPEUTICS, INC., priority 2014, dated 2018)
Structures can show the parent of a compound that is named as a salt. Where two headings read alike, the source gives them in different places.

What was measured:
MIA PaCa-2 cells = assay: Gemcitabine Combination Cell Assay (Cell Titer Glo); type: cell-based; conditions: for IC50: Homo sapiens; for 10xLS: approximate concentration of Chk1 inhibitor that results in a 10-fold reduction in the IC50 of gemcitabine alone; for 2xLS: approximate concentration of Chk1 inhibitor that results in a two-fold reduction in the IC50 of gemcitabine alone
In short: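 MIA PaCa-2 cells were treated 72 h with half-log dilutions of Chk1 inhibitor (top 3000 nM) and gemcitabine (top 100 nM), alone and in full matrix; viability by CellTiter-Glo luminescence. IC50s from four-parameter fit; Chk1 inhibitor concentrations giving two- and ten-fold lowering of gemcitabine IC50 were estimated.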

Chk-1 kinase = Chk-1 kinase (Homo sapiens (Human), UniProt O14757); assay: Chk-1 Kinase Inhibiting Activity (33P-ATP filter assay, CHKtide substrate); type: biochemical; conditions: against Chk-1 kinase; read-out: IC50
In short: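 Full-length N-terminal GST-tagged human Chk-1 from insect cells, 0.5 nM final, with 20 μM peptide substrate and 33P-ATP in HEPES pH 7.5 buffer with 1% DMSO. Reaction ran 120 minutes at room temperature; incorporated radioactivity captured on P81 filters and counted for IC50.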

[1] = MIA PaCa-2, 72 h, read-out: Chk1 IC50 (nM)
[2] = Chk1 inhibitor alone, MIA PaCa-2 cells, 72 h, read-out: Chk1 IC50

Chk-1 kinase, sequence (O14757 whole entry): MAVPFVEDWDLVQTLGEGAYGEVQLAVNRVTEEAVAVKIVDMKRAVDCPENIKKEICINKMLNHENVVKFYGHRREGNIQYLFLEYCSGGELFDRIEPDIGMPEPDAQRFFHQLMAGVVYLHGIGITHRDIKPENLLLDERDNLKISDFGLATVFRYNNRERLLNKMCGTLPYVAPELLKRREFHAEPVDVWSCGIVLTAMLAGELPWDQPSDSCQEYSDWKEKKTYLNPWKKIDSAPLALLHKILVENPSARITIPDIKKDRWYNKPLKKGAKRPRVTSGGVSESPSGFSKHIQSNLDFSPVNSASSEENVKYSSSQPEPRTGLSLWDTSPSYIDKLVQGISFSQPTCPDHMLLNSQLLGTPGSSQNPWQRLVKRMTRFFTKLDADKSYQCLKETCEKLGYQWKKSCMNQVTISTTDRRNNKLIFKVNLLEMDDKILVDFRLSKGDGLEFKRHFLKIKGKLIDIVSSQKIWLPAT

SMILES | IC50 (MIA PaCa-2 cells; [1]) [nM] | 10xLS (MIA PaCa-2 cells; MIA PaCa-2 cells, 72 h) [nM] | 2xLS (MIA PaCa-2 cells; MIA PaCa-2 cells, 72 h) [nM] | IC50 (Chk-1 kinase) [nM] | IC50 (MIA PaCa-2 cells; [2]) [nM]
COc1cc(C2CCN(C)CC2)ccc1-c1cc(Nc2cnc(C#N)cn2)n[nH]1 [Example 11, 5-{5-[2-Methoxy-4-(1-methyl-piperidin-4-yl)-phenyl]-1H-pyrazol-3-ylamino}-pyrazine-2-carbonitrile hydrochloride] | 214 | <100 | 3 | 0.048 | –
COc1cc(CNC(C)C)ccc1-c1cc(Nc2cnc(C#N)cn2)n[nH]1 [Example 59, 5-[[5-[4-[(isopropylamino)methyl]-2-methoxy-phenyl]-1H-pyrazol-3-yl]amino]pyrazine-2-carbonitrile] | – | 100 | 3 | 0.071 | 263
COc1cc(C2CCN(C(=O)CN(C)C)CC2)ccc1-c1cc(Nc2cnc(C#N)cn2)n[nH]1 [Example 17, 5-[[5-[4-[1-[2-(Dimethylamino)acetyl]-4-piperidyl]-2-methoxy-phenyl]-1H-pyrazol-3-yl]amino]pyrazine-2-carbonitrile hydrochloride] | 1820 | 300 | 10 | 0.29 | –
CCN1CCC[C@@H]1COc1ccc(-c2cc(Nc3cnc(C#N)cn3)n[nH]2)c(OC)c1 [Example 126, 5-[[5-[4-[[(2R)-1-ethylpyrrolidin-2-yl]methoxy]-2-methoxy-phenyl]-1H-pyrazol-3-yl]amino]pyrazine-2-carbonitrile] | – | <100 | 3 | 0.056 | 210
COc1cc(CNc2ccccn2)ccc1-c1cc(Nc2cnc(C#N)cn2)n[nH]1 [Example 31, 5-[[5-[2-methoxy-4-[(2-pyridylamino)methyl]phenyl]-1H-pyrazol-3-yl]amino]pyrazine-2-carbonitrile] | – | 100 | 3 | 0.37 | 838
COc1cc(C2C[C@H](C)N[C@@H](C)C2)ccc1-c1cc(Nc2cnc(C#N)cn2)n[nH]1 (stereo partly drawn) [Example 47, 5-[[5-[4-[(2S,6S)-2,6-dimethyl-4-piperidyl]-2-methoxy-phenyl]-1H-pyrazol-3-yl]amino]pyrazine-2-carbonitrile] | – | 100 | 3 | 0.23 | 235
COc1cc(CNC2CCOCC2)ccc1-c1cc(Nc2cnc(C#N)cn2)n[nH]1 [Example 14, 5-[[5-[2-Methoxy-4-[(tetrahydropyran-4-ylamino)methyl]phenyl]-1H-pyrazol-3-yl]amino]pyrazine-2-carbonitrile hydrochloride] | 894 | ~50 | <3 | 0.026 | –
COc1cc(NC2CCN(C)CC2)ccc1-c1cc(Nc2cnc(C#N)cn2)n[nH]1 [Example 110, 5-[[5-[2-methoxy-4-[(1-methyl-4-piperidyl)amino]phenyl]-1H-pyrazol-3-yl]amino]pyrazine-2-carbonitrile] | – | 100 | 3 | 0.0069 | 192
COc1cc(N2CCCN(C(C)C)CC2)ccc1-c1cc(Nc2cnc(C#N)cn2)n[nH]1 [Example 84, 5-[[5-[4-(4-isopropyl-1,4-diazepan-1-yl)-2-methoxy-phenyl]-1H-pyrazol-3-yl]amino]pyrazine-2-carbonitrile] | – | <100 | <3 | 0.14 | 62
CCN1CCCN(c2ccc(-c3cc(Nc4cnc(C#N)cn4)n[nH]3)c(OC)c2)CC1 [Example 83, 5-[[5-[4-(4-ethyl-1,4-diazepan-1-yl)-2-methoxy-phenyl]-1H-pyrazol-3-yl]amino]pyrazine-2-carbonitrile] | – | <100 | <3 | 0.11 | 107
COc1cc(C2CCNCC2)ccc1-c1cc(Nc2cnc(Cl)cn2)n[nH]1 [Example 43, 5-chloro-N-[5-[2-methoxy-4-(4-piperidyl)phenyl]-1H-pyrazol-3-yl]pyrazin-2-amine] | – | 1000 | 100 | 0.73 | 1330
